From article PMC3356383, “Efficacious Intermittent Dosing of a Novel JAK2 Inhibitor in Mouse Models of Polycythemia Vera” (PLoS ONE, 2012)
Marks after values point to notes of the source that are not given here.

Columns and labels:
JAK2 (JH1) WT = biological target: T1, JAK2 (JH1) WT (Homo sapiens, UniProt O60674); assay: JAK2 enzyme assay, HTRF detection; assay type: biochemical
T1 construct: JAK2, 25 pM enzyme (JH1, JH1–JH2^wt, JH1–JH2^V617F domains)
Description: (§1) JAK1, JAK2, JAK3, and TYK2 kinase activity assays were performed as described previously using HTRF detection technology and the peptide substrate amino hexanoyl biotin-EQEDEPEGDYFEWLE-NH2. Each reaction was incubated between 60 and 80 min at room temperature. Final conditions were as follows: JAK1, 400 pM enzyme, Hepes pH 7.5, 10 mM MgCl2, 0.01% Brij-35, 1 mM EGTA, 0.1 mg/ml BSA), 2 mM DTT, 2 µM peptide substrate, 25 µM MgATP, 5% DMSO and the desired concentration of subject compound; JAK2, 25 pM enzyme (JH1, JH1–JH2^wt, JH1–JH2^V617F domains), 2 µM peptide substrate, 15 µM MgATP, 5 mM MgCl2, 100 mM NaCl, 2 mM DTT, 0.1 mg/ml BSA, 50 mM Tris (pH 7.4), 5% DMSO and the desired concentration of subject compound; JAK3, 250 pM enzyme, 50 mM Hepes pH 7.5, 10 mM MgCl2, 0.01% Brij-35, 1 mM EGTA, 0.1 mg/ml BSA), 2 mM DTT, 2.0 µM peptide substrate, 25 µM MgATP, 5% DMSO, and the desired concentration of subject compound; TYK2, 125 pM enzyme, 50 mM Hepes pH 7.5, 10 mM MgCl2, 0.01% Brij-35, 1 mM EGTA, 0.1 mg/ml BSA, 2 mM DTT, 2.0 µM peptide substrate, 15 µM MgATP, 5% DMSO and the desired concentration of subject compound.

JAK2 (JH1–JH2) V617F = biological target: T2, JAK2 (JH1–JH2) V617F (Homo sapiens, UniProt O60674, V617F); assay: JAK2 enzyme assay, HTRF detection; assay type: biochemical; conditions: kinase activity, mean, n = 3, read-out: IC50, cell-free JAK2 (JH1–JH2) V617F
T2 construct: JAK2, 25 pM enzyme (JH1, JH1–JH2^wt, JH1–JH2^V617F domains)
Description: as §1

JAK2 (JH1–JH2) WT = biological target: T3, JAK2 (JH1–JH2) WT (Homo sapiens, UniProt O60674); assay: JAK2 enzyme assay, HTRF detection; assay type: biochemical; conditions: kinase activity, mean, n = 3, read-out: IC50, cell-free JAK2 (JH1–JH2) WT
T3 construct: JAK2, 25 pM enzyme (JH1, JH1–JH2^wt, JH1–JH2^V617F domains)
Description: as §1

pSTAT5 = assay: Acute PK/PD: pSTAT5 in peripheral blood of darbepoetin-stimulated mice; assay type: in vivo, C57BL/6 mice; conditions: Mus musculus
Description: C57BL/6 mice (Charles River Laboratories, Wilmington, MA) aged 4–6 weeks were dosed with MRLB-11055 in vehicle (10%v/v polysorbate 80) or with vehicle alone. All dosing was done by oral gavage (10 ml/kg body weight/day). Blood sampling and measurement of pSTAT5 in the blood of darbepoetin-stimulated mice were measured as described previously. The level of MRLB-11055 in the blood of animals was measured by diluting blood samples (10 uL) with citrate buffer (30 uL) and precipitating with acetonitrile (200 uL) containing a structural analog as internal standard. Precipitated samples were filtered, water (200 uL) was added and the sample injected onto a C18 column (Waters Atlantis T3, 2.1 mm x 30 mm). Electrospray ionization with multiple reaction monitoring was used for MS/MS detection.

thymus cell populations = assay: Cell populations in thymus of normal mice; assay type: in vivo; conditions: 54 mpk
Description: Cells were stained in PBS, 0.5% BSA with antibodies for 15 min on ice. Stained cells were acquired on a 4-laser LSR-II (BD Biosciences) and data analyzed using FlowJo software (Treestar). Dead cells were labeled with the blue fluorescent LIVE/DEAD reactive dye (Invitrogen) and excluded from the analysis.
Monoclonal antibodies (anti-mouse): CD3, CD4, CD5, CD8, CD11b, CD19, CD21/35, CD23, CD25, CD43, CD44, CD49b, CD69, CD71, CD93, CD117, B220, GR-1, IgD, NK1.1, NKG2A/C/E, NKG2D, Ter119 were purchased from BD Biosciences; CD4, CD8, CD49b, CD62L, TCRβ, TCRγδ from eBioscience; GR-1 from Invitrogen; CD43 from Miltenyi Biotec. Goat anti-mouse IgM-FITC, (μ chain specific) from Jackson Immuno Research.
JAK2 and its family members JAK1 and JAK3 are known to signal downstream of cytokines that play essential roles in the development of lymphoid cell populations. To examine more thoroughly the effects of JAK2 inhibition on lymphoid cells, we analyzed wild-type (C57BL/6) mice treated with 54 mpk MRLB-11055 for 3 days, 6 days or up to 5 cycles of 3 days (“on”) followed by a 4 day holiday (“off”).
Supplementary file pone.0037207.s007.doc: Table S5 Effect of MRLB-11055 on Cell Populations in Thymus of Normal Mice. Cell counts measured by Advia. Cycles refer to 3 days of treatment followed by a 4 day holiday. *p<0.05 in Student T test when comparing vehicle 5 cycle with treatment 5 cycle and vehicle 2 cycle with treatment 2 cycle, resp. (DOC) Click here for additional data file.

[1] = 2 cycles (3 days treatment, 4 day holiday)
[2] = 5 cycles (3 days treatment, 4 day holiday)

T1 sequence (O60674 849-1124 limits assumed): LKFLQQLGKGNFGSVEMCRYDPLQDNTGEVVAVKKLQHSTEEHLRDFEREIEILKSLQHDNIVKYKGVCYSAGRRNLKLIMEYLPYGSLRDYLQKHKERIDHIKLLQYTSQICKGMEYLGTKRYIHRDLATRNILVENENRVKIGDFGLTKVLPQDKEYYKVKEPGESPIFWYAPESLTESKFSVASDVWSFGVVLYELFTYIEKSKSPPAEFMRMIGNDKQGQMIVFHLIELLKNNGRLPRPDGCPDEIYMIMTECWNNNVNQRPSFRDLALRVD
T2 sequence (O60674 532-1132 V617F limits assumed): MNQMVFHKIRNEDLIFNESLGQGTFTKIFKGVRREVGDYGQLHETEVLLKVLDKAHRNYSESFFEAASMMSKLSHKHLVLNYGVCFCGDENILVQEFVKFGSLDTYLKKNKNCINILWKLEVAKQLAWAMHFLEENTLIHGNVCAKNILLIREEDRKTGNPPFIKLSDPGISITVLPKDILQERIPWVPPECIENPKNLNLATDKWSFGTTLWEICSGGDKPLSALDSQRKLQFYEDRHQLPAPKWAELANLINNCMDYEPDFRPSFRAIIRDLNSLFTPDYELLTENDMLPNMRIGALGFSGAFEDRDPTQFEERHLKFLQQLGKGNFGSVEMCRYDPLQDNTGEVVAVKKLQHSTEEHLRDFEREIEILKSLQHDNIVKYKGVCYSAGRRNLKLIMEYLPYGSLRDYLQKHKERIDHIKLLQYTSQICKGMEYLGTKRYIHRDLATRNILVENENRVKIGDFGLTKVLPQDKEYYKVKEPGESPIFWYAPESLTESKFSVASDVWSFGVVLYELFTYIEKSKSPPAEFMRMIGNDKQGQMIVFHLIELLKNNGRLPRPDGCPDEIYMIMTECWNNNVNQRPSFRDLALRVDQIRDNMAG
T3 sequence (O60674 532-1132 limits assumed): as the sequence (O60674 532-1132 V617F limits assumed) above, with F86V counted along it

NC(=O)c1cnc(N[C@H](C2CC2)C(F)(F)F)c2c1[nH]c1cc(-c3cnc(N)nc3)ccc12 [MRLB-11055]
Manner of inhibition of the JH1 kinase domain (JAK2 (JH1) WT; data not shown): ATP-competitive
IC50 (JAK2 (JH1) WT; kinase activity, HTRF assay, mean, n = 3, read-out: IC50, cell-free JAK2 (JH1) WT): 0.08 nM
IC50 (JAK2 (JH1–JH2) V617F): 0.35 nM
IC50 (JAK2 (JH1–JH2) WT): 0.78 nM
inhibition at 36 mg/kg (pSTAT5; 36 mg/kg oral, maintained over 12 hours): > 90%
IC50 (pSTAT5; oral dosing, mice simultaneously injected with darbepoetin, read-out: IC50 for inhibition of pSTAT5 in peripheral blood in vivo): 1200 nM
Thymus CD4+CD8+ (thymus cell populations; [1]): 91.3 ± 0.3%
Thymus CD4-CD8- (thymus cell populations; [1]): 3.0 ± 0.8%
Thymus Cell Count (thymus cell populations; [1]): 75.4 ± 26.5 x 10^6
Thymus Single Positive CD4+ (thymus cell populations; [1]): 3.9 ± 0.8* %
Thymus Single Positive CD8+ (thymus cell populations; [1]): 0.55 ± 0.03* %
Thymus CD4+CD8+ (thymus cell populations; [2]): 90.7 ± 1.5%
Thymus CD4-CD8- (thymus cell populations; [2]): 2.1 ± 0.6%
Thymus Cell Count (thymus cell populations; [2]): 130.3 ± 27.1 x 10^6
Thymus Single Positive CD4+ (thymus cell populations; [2]): 5.0 ± 1.1%
Thymus Single Positive CD8+ (thymus cell populations; [2]): 1.4 ± 0.2* %
Thymus CD4+CD8+ (thymus cell populations; 3 days): 85.6 ± 2.4* %
Thymus CD4-CD8- (thymus cell populations; 3 days): 3.5 ± 0.6%
Thymus Cell Count (thymus cell populations; 3 days): 37.3 ± 13.4* x 10^6
Thymus Single Positive CD4+ (thymus cell populations; 3 days): 7.1 ± 1.3%
Thymus Single Positive CD8+ (thymus cell populations; 3 days): 2.7 ± 0.8%
Thymus CD4+CD8+ (thymus cell populations; 6 days): 87.9 ± 5.0%
Thymus CD4-CD8- (thymus cell populations; 6 days): 2.4 ± 0.9%
Thymus Cell Count (thymus cell populations; 6 days): 37.3 ± 12.1* x 10^6
Thymus Single Positive CD4+ (thymus cell populations; 6 days): 5.8 ± 2.7%
Thymus Single Positive CD8+ (thymus cell populations; 6 days): 2.7 ± 1.1%
